Measured values: article PMC2933614, “Quantitative in vitro and in vivo pharmacological profile of CE-178253, a potent and selective cannabinoid type 1 (CB1) Receptor Antagonist” (BMC Pharmacology, 2010)
Read-outs that look alike come from different tables or passages of the source.

How the values were obtained:
human CB1 receptor = biological target: T1, human CB1 receptor (Homo sapiens, UniProt P21554); assay: Competition radioligand binding, human CB1
T1 construct: expressed in transfected cells
Procedure: HEK293 (CB1) or CHO (CB1 and CB2) cells (ATCC) were stably transfected with the human CB1 or CB2 receptors. Rat brain, and recombinant CB1 and CB2 and membranes were prepared as described. A Pierce™ BCA kit was used to determine protein concentrations.
10 μg of membranes per well from human CB1 and CB 2 receptor transfected cells and rat brain was used in the assay. The plates were covered and placed in an incubator at 30°C for 60 min. At the end of the incubation period 125 μl of stop buffer (10% BSA plus TME) was added to the reaction plate. The plates were then harvested onto GF/C filter plates (Perkin Elmer Life Sciences) presoaked in BSA (5 mg/ml) plus TME. Each filter was washed twice with TME and dried overnight. In the morning the filters were counted on a Wallac Trilux™ counter.
(§1) Saturation and competition radioligand binding assays were used to characterize membranes prepared from human recombinant CB1 and CB2 and rat brain membranes.

human CB1 in CHO cells = biological target: T2, human CB1 in CHO cells (Homo sapiens, UniProt P21554); assay: GTPγ[35S] functional assay, antagonism of CP-55940 stimulation, Schild analysis; assay type: biochemical
T2 construct: expressed in transfected cells
Procedure: GTPγ[^35S] binding assays were performed as described. GTPγ[^35S] binding assays were performed in a 96-well FlashPlate™ format in duplicate using 100 pM GTPγ[^35S] and 10 μg membrane per well in assay buffer composed of 50 mM Tris HCl (pH 7.4); 3 mM MgCl2 (pH 7.4); 10 mM MgCl2, 20 mM EGTA, 100 mM NaCl, 30 μM GDP, 0.1% BSA and the following protease inhibitors: 100 μg/ml bacitracin, 100 μg/ml benzamidine, 5 μg/ml aprotinin, and 5 μg/ml leupeptin. […] Assays were performed at 30°C for 1 hr. The FlashPlates™ were then centrifuged at 2000×g for 10 min. Stimulation of GTPγ[^35S] binding was then quantified using a Wallac Microbeta® [16].
as §1

[1] = biological target: Vanilloid 1 (TRPV1) receptor channel (Homo sapiens, UniProt Q8NER1); assay: TRPV1 functional assay; assay type: biochemical; conditions: range 9-13%, n = 2
Text: Rimonabant also binds weakly to the Vanilloid 1 (TRPV1) receptor channel. […] CE-178253 was not evaluated against TRPM8. Rimonabant has been reported to bind to TRPM8 [21].

brain CB1 receptor = biological target: T3, brain CB1 receptor (Rattus norvegicus, UniProt P20272); assay: Ex vivo brain receptor occupancy; assay type: in vivo
T3 construct: Brain homogenates were prepared by adding TME buffer to pre-weighed tissue; from tissue; host or cells: brain homogenate of Sprague Dawley rats dosed p.o
Procedure: An ex vivo brain receptor occupancy assay was used to calculate the in vivo receptor occupancy of CE-178253 at selected doses. […] Brains were removed from the rats 2 hr after return of food. […] The homogenate was diluted to a concentration of 2 mg/mL using TME buffer. […] The plates were then covered and incubated for 90 min at room temperature on a plate shaker. Reactions were stopped by the addition of 100 μL ice cold 7.5% BSA in TME. The plates were aspirated then harvested onto GF/C filter plates (Perkin Elmer Life Sciences; Boston, MA) using ice-cold TME buffer. The filter plates had been pre-soaked in 50 μL 0.5% BSA in TME for 60 min. Filters were dried at room temperature for 30 min, after which 25 μL of Microscint™ (Perkin Elmer Life Sciences; Boston, MA) was added to each and the plates analyzed on a Microbeta counter. Care was taken in our assay to minimize drug-tissue dissociation by comparing binding in a time course and under various conditions. […] Experiments were run in triplicate with at least an n = 3 for each treatment group.

[2] = Unbound plasma concentration of CE-178253; assay type: in vivo, rat; conditions: for Unbound Plasma Concentration (± S-D): indirect calorimetry study; for concentration at […]: Sprague-Dawley, rat, plasma, oral, fast-induced refeeding study, read-out: Unbound Plasma Concentration (± S-D)
Procedure: Plasma bound fractions for CE-178253 were determined using an equilibrium dialysis assay, as previously described. Spectra-Por 2 membranes (Spectrum Laboratories Inc., Rancho Dominguez, CA) with a molecular cut-off of 12-14 kDa were used for the dialysis. Equilibrium of the system was achieved by incubating the apparatus for 4.5 hr in a 37°C reciprocating water bath (set at 155 rpm). A standard curve was set up over the range 1-1000 ng/mL. All samples were quantified using liquid chromatography/tandem mass spectrometry using a PE Sciex API 3000 spectrometer. For plasma, the unbound fraction was determined as the ratio of concentrations determined in buffer and plasma.

[3] = Ten day DIO mouse food intake and body weight study; assay type: in vivo; conditions: 10-day, DIO mice
Procedure: Male, 14 week old C57/Bl6/6J mice which had been maintained on a high fat diet (45% kcal from fat) for 6 weeks were selected for the DIO weight loss study. The animals body weights ranged at least 5 standard deviations from age-matched chow-fed control animals mean body weight. Mice were singly housed. The mean starting weight of all animals was 38.9 ± 0.5 g. On Day 0, mice were randomly assigned to treatment groups (n = 10 per group). Mice were dosed daily over 10 days, starting approximately at 30 minutes before the start of the 12 hr dark cycle. BW and food intake were recorded daily.
DIO mice were treated once daily with veh. (0.5% MC) or CE-178253 at 1 mg/kg or 3 mg/kg, p.o., in a 10-day study (Figures 8A and 8B). […] The lower dose of CE-178253 (1 mg/kg, p.o.) provided for a non-significant 8% reduction in FI, whereas the 3 mg/kg dose led to a significant 31% reduction in cumulative FI. As with other CB1 receptor antagonists, the food intake reduction was maximal over the first five days and declined over time (Figure 8A). However, FI reductions were still evident on the final day of dosing at the high dose. […] The high dose group (3 mg/kg) lost, on average 18% BW.

T2 sequence (P21554 whole entry): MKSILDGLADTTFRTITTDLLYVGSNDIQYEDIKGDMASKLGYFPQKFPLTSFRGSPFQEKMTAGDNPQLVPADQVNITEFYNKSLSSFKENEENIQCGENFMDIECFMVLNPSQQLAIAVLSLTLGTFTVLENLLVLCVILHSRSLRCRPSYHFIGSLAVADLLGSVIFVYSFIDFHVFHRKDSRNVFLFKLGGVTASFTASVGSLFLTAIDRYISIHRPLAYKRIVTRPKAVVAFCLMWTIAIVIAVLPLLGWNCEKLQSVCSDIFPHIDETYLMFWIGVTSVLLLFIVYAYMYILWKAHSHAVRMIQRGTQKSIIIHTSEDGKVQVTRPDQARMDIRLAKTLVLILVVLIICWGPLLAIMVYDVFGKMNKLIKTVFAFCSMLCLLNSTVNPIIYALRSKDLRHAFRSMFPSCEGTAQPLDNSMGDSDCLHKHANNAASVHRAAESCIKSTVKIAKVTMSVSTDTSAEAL
T3 sequence (P20272 whole entry): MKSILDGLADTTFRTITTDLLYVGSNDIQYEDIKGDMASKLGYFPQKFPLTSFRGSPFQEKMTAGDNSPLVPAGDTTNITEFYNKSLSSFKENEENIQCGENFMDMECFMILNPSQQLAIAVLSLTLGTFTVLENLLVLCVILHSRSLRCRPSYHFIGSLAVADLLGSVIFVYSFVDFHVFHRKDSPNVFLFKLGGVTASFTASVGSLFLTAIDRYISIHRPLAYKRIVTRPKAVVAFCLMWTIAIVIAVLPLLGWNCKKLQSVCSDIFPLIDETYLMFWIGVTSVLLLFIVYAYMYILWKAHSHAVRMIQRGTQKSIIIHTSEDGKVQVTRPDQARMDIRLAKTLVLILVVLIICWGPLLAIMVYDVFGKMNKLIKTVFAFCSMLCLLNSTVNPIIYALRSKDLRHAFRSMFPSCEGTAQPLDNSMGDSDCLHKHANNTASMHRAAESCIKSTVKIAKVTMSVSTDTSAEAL
T1 sequence (P21554 whole entry): as the sequence (P21554 whole entry) above
Vanilloid 1 (TRPV1) receptor channel, sequence (Q8NER1 whole entry, species assumed): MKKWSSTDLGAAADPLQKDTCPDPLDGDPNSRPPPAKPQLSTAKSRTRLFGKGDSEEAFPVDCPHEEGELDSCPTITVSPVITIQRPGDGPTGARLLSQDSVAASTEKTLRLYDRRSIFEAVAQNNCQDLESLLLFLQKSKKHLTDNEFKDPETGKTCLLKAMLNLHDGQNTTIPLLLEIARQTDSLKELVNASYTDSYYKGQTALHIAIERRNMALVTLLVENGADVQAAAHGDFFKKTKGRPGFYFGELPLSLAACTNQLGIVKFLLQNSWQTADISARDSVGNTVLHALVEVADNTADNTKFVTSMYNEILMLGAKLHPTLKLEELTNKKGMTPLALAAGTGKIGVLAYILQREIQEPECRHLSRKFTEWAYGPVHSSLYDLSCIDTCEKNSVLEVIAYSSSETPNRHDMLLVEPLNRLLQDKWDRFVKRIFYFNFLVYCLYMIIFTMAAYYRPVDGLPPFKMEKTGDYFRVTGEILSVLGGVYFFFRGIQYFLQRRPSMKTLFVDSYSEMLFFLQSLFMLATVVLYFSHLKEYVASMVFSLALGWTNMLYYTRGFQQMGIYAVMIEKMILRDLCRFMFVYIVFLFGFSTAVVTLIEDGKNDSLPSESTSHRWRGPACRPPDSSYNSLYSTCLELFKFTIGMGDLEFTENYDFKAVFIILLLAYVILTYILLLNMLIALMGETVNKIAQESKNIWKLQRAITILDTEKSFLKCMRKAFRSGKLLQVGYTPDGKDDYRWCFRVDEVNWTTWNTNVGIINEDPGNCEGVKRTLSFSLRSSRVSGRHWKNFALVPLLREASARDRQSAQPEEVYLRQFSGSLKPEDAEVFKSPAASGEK

- Concentration giving complete inhibition of [3H]SR141716A binding (human CB1 receptor; not shown): greater than 10 nM
- Ki (human CB1 receptor; read-out: Ki, competition binding, hCB1): 0.33 ± 0.07 nM
- Kb (human CB1 in CHO cells; GTPγ[35S] assay): 0.63 nM
- Slope (human CB1 in CHO cells; GTPγ[35S] functional assay, Schild slope): 0.83
- Ki (human CB1 in CHO cells; inhibition of CP-55940-stimulated GTPγ[35S] binding, read-out: Antagonist Ki, GTPγ[35S] functional assay): 0.07 ± 0.01 nM
- inhibition at 10 µM [1]: 11%
- Receptor occupancy required for maximum efficacy (brain CB1 receptor; calculated, energy intake and expenditure models): 50-75%
- receptor occupancy at 0.3 mg/kg (brain CB1 receptor; rat, po, 0.3 mg/kg p.o., brains removed 2 hr after return of food, read-out: % Receptor Occupancy (mean ± S-D)): 27 ± 12%
- receptor occupancy at 1 mg/kg (brain CB1 receptor; rat, po, 1 mg/kg p.o., brains removed 2 hr after return of food, read-out: % Receptor Occupancy (mean ± S-D)): 64 ± 2%
- receptor occupancy at 3 mg/kg (brain CB1 receptor; rat, po, 3 mg/kg p.o., brains removed 2 hr after return of food, read-out: % Receptor Occupancy (mean ± S-D)): 78 ± 6%
- receptor occupancy at 10 mg/kg (brain CB1 receptor; rat, po, 10 mg/kg p.o., brains removed 2 hr after return of food, read-out: % Receptor Occupancy (mean ± S-D)): 82 ± 2%
- Unbound Plasma Concentration (± S-D) ([2]; 1 mg/kg p.o.): 0.8 ± 0.2 nM
- Unbound Plasma Concentration (± S-D) ([2]; 3 mg/kg p.o.): 3.8 ± 0.9 nM
- concentration at […] ([2]; 0.3 mg/kg p.o.): 0.17 ± 0.02 nM
- concentration at […] ([2]; 1 mg/kg p.o.): 1 ± 0.3 nM
- concentration at […] ([2]; 3 mg/kg p.o.): 2.7 ± 1 nM
- concentration at […] ([2]; 10 mg/kg p.o.): 15.6 ± 1.6 nM
Structure (SMILES): CCNC1(C(N)=O)CN(c2nc(C)nc3c(-c4ccc(Cl)cc4)c(-c4ccccc4Cl)nn23)C1 [CE-178253]
- Reduction in cumulative FI ([3]; 1 mg/kg p.o. once daily, non-significant): 8%
- BW lost, on average ([3]; 3 mg/kg p.o. once daily): 18%
- Reduction in cumulative FI ([3]; 3 mg/kg p.o. once daily, significant): 31%
